What follows are molecules tested against Growth hormone secretagogue receptor type 1 (Homo sapiens, UniProt Q92847) (assay: SUPPLEMENTARY: Agonist activity at GSHR by FLIPR assay. Same assay as CHEMBL941945).
Format: functional

Chain of Growth hormone secretagogue receptor type 1 (Q92847 whole entry): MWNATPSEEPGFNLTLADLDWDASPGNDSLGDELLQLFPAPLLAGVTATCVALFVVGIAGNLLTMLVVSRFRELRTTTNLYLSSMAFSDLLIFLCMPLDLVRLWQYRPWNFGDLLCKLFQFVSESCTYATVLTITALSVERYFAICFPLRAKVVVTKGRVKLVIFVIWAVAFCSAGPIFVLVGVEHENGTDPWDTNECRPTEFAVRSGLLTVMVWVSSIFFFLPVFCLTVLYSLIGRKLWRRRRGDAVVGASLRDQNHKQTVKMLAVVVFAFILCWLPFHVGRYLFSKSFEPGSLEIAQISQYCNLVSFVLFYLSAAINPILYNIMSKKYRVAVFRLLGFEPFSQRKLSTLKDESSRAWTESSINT

EC50 [nM]	Compound
12.6	COc1ccc(N2C[C@@H](C)N[C@@H](C)C2)cc1NS(=O)(=O)c1ccc(-c2ccc(Cl)s2)cc1
1	Cc1ccc(-c2ccc(S(=O)(=O)Nc3cccc(N4C[C@@H](C)N[C@@H](C)C4)n3)cc2F)o1
31.6	Cc1ccc(-c2ccc(S(=O)(=O)Nc3ccnc(N4C[C@@H](C)N[C@@H](C)C4)n3)cc2F)o1
20	Cc1ccc(-c2ccc(S(=O)(=O)Nc3cc(N4C[C@@H](C)N[C@@H](C)C4)ccn3)cc2F)o1
63.1	COc1ncc(N2C[C@@H](C)N[C@@H](C)C2)cc1NS(=O)(=O)c1ccc(-c2ccc(C)o2)c(F)c1
5.01	COc1ccc(N2C[C@@H](C)N[C@@H](C)C2)nc1NS(=O)(=O)c1ccc(-c2cc(C)cs2)cc1Cl
10	Cc1ccc(-c2ccc(S(=O)(=O)Nc3cc(N4C[C@@H](C)N[C@@H](C)C4)c[nH]c3=O)cc2F)o1
25.1	COc1ccc(N2C[C@@H](C)N[C@@H](C)C2)nc1NS(=O)(=O)c1ccc(-c2ccoc2)cc1Cl
31.6	COc1ccc(NS(=O)(=O)c2sc3ccc(Cl)cc3c2C)cc1N1C[C@@H](C)N[C@@H](C)C1
15.8	COc1ccc(NS(=O)(=O)c2ccc3ccccc3c2)cc1N1C[C@@H](C)N[C@@H](C)C1
31.6	COc1ccc(NS(=O)(=O)c2cccc3ccccc23)cc1N1C[C@@H](C)N[C@@H](C)C1
15.8	COc1ccc(NS(=O)(=O)/C=C/c2ccccc2)cc1N1C[C@@H](C)N[C@@H](C)C1
126	COc1ccc(NS(=O)(=O)c2ccc(Oc3ccccc3)cc2)cc1N1C[C@@H](C)N[C@@H](C)C1
398	COc1ccc(NS(=O)(=O)c2cccc3cccnc23)cc1N1C[C@@H](C)N[C@@H](C)C1
63.1	COc1ccc(NS(=O)(=O)c2ccc(Cl)c(Cl)c2)cc1N1C[C@@H](C)N[C@@H](C)C1
6.31	COc1ccc(NS(=O)(=O)c2ccc(-n3cccn3)cc2)cc1N1C[C@@H](C)N[C@@H](C)C1
1	COc1ccc(NS(=O)(=O)c2ccc(-c3cccs3)cc2)cc1N1C[C@@H](C)N[C@@H](C)C1
0.631	COc1ccc(NS(=O)(=O)c2ccc(-c3cccc(C)n3)s2)cc1N1C[C@@H](C)N[C@@H](C)C1
79.4	COc1ccc(NS(=O)(=O)c2ccc(N3CCCC3=O)cc2)cc1N1C[C@@H](C)N[C@@H](C)C1
7.94	COc1ccc(N2C[C@@H](C)N[C@@H](C)C2)cc1NS(=O)(=O)c1ccc2ccccc2c1
126	COc1ccc(N2C[C@@H](C)N[C@@H](C)C2)cc1NS(=O)(=O)c1ccc(Br)s1

EC50 [nM]	Compound
10	COc1ccc(N2C[C@@H](C)N[C@@H](C)C2)cc1NS(=O)(=O)c1ccc(-c2cccc(C)n2)cc1
10	COc1ccc(N2C[C@@H](C)N[C@@H](C)C2)cc1NS(=O)(=O)c1ccc(-c2cccc(C)n2)s1
15.8	COc1ccc(N2C[C@@H](C)N[C@@H](C)C2)cc1NS(=O)(=O)c1cccc(Cl)c1Cl
50.1	COc1ccc(N2C[C@@H](C)N[C@@H](C)C2)cc1NS(=O)(=O)c1cccc2cccnc12
50.1	COc1ccc(N2C[C@@H](C)N[C@@H](C)C2)cc1NS(=O)(=O)c1ccc(Cl)c(Cl)c1
50.1	COc1ccc(N2C[C@@H](C)N[C@@H](C)C2)cc1NS(=O)(=O)c1ccc(-c2cnco2)cc1
100	COc1ccc(N2C[C@@H](C)N[C@@H](C)C2)cc1NS(=O)(=O)c1ccc(-c2cccnc2)cc1
5.01	COc1ccc(N2C[C@@H](C)N[C@@H](C)C2)cc1NS(=O)(=O)c1ccc(-c2ccsc2)cc1
100	COc1ccc(N2C[C@@H](C)N[C@@H](C)C2)cc1NS(=O)(=O)c1ccc(-c2cccnc2)s1
5.01	COc1ccc(N2C[C@@H](C)N[C@@H](C)C2)cc1NS(=O)(=O)c1ccc(-c2ccsc2)s1
15.8	COc1ccc(NS(=O)(=O)c2ccc(-c3cccc(C)n3)cc2)cc1N1C[C@@H](C)N[C@@H](C)C1
25.1	COc1ccc(N2C[C@@H](C)N[C@@H](C)C2)cc1NS(=O)(=O)c1cc2cc(Cl)ccc2s1
39.8	COc1ccc(NS(=O)(=O)c2ccc(-c3cnco3)cc2)cc1N1C[C@@H](C)N[C@@H](C)C1
158	COc1ccc(N2C[C@@H](C)N[C@@H](C)C2)cc1NS(=O)(=O)c1cccc(Br)c1
7.94	COc1cc(F)c(N2C[C@@H](C)N[C@@H](C)C2)cc1NS(=O)(=O)c1ccc(-c2cccs2)cc1
20	COc1cc(F)c(N2C[C@@H](C)N[C@@H](C)C2)cc1NS(=O)(=O)c1ccc(-c2ccccn2)s1
3.98	COc1ccc(N2C[C@@H](C)N[C@@H](C)C2)cc1NS(=O)(=O)c1ccc(-c2cccs2)s1
100	C[C@@H]1CN(c2cc(NS(=O)(=O)c3ccc(-c4cccs4)cc3)ccc2C#N)C[C@H](C)N1
100	COc1ccc(Oc2cccc(S(=O)(=O)Nc3cc(N4C[C@@H](C)N[C@@H](C)C4)ccc3OC)c2)cc1
10	COc1ccc(N2C[C@@H](C)N[C@@H](C)C2)cc1NS(=O)(=O)c1csc2ccccc12
31.6	COc1ccc(N2C[C@@H](C)N[C@@H](C)C2)cc1NS(=O)(=O)c1sc2ccc(F)cc2c1C

EC50 [nM]	Compound
2.51	COc1ccc(NS(=O)(=O)c2ccc(-c3ccsc3)cc2)cc1N1C[C@@H](C)N[C@@H](C)C1
15.8	COc1ccc(N2C[C@@H](C)N[C@@H](C)C2)cc1NS(=O)(=O)c1cccc(-c2cccs2)c1
1.58	COc1ccc(NS(=O)(=O)c2ccc(-c3ccsc3)s2)cc1N1C[C@@H](C)N[C@@H](C)C1
1	COc1ccc(NS(=O)(=O)c2ccc(-c3ccccc3)s2)cc1N1C[C@@H](C)N[C@@H](C)C1
25.1	C[C@@H]1CN(c2ccc(O)c(NS(=O)(=O)c3ccc(-c4ccccn4)s3)c2)C[C@H](C)N1
1.58	COc1ccc(N2C[C@@H](C)N[C@@H](C)C2)cc1NS(=O)(=O)c1ccc2c(Cl)cccc2c1
39.8	COc1ccc(NS(=O)(=O)c2ccc(-c3cnco3)s2)cc1N1C[C@@H](C)N[C@@H](C)C1
31.6	COc1ccc(N2C[C@@H](C)N[C@@H](C)C2)cc1NS(=O)(=O)c1ccc(-c2cnccc2OC)s1
12.6	CCOc1ccc(N2C[C@@H](C)N[C@@H](C)C2)cc1NS(=O)(=O)c1ccc(-c2cccs2)cc1
15.8	CC(C)Oc1ccc(N2C[C@@H](C)N[C@@H](C)C2)cc1NS(=O)(=O)c1ccc(-c2cccs2)cc1
39.8	COc1ccc(NS(=O)(=O)c2ccc(Br)cc2C)cc1N1C[C@@H](C)N[C@@H](C)C1
10	C[C@@H]1CN(c2cccc(NS(=O)(=O)c3cccc4ccccc34)c2)C[C@H](C)N1
6.31	COCc1cccc(-c2ccc(S(=O)(=O)Nc3cc(N4C[C@@H](C)N[C@@H](C)C4)ccc3OC)cc2)c1
15.8	C[C@@H]1CN(c2cccc(NS(=O)(=O)c3ccc4ccccc4c3)c2)C[C@H](C)N1
20	C[C@@H]1CN(c2cccc(NS(=O)(=O)c3cccc(Cl)c3Cl)c2)C[C@H](C)N1
31.6	C[C@@H]1CN(c2cccc(NS(=O)(=O)c3cc4ccccc4s3)c2)C[C@H](C)N1
6.31	C[C@@H]1CN(c2cccc(NS(=O)(=O)c3ccc(-c4cccs4)cc3)c2)C[C@H](C)N1
25.1	C[C@@H]1CN(c2cccc(NS(=O)(=O)c3ccc(-c4ccc(Cl)s4)cc3)c2)C[C@H](C)N1
100	COc1ccc(NS(=O)(=O)c2ccc(-c3ccccc3C)cc2)cc1N1C[C@@H](C)N[C@@H](C)C1
7.94	COc1ccc(N2C[C@@H](C)N[C@@H](C)C2)cc1NS(=O)(=O)c1ccc(-c2ccoc2)cc1
2	COc1ccc(NS(=O)(=O)c2ccc(-c3cccs3)s2)cc1N1C[C@@H](C)N[C@@H](C)C1

EC50 [nM]	Compound
25.1	C[C@@H]1CN(c2cccc(NS(=O)(=O)c3ccc(-n4cccn4)cc3)c2)C[C@H](C)N1
39.8	COc1ccc(NS(=O)(=O)c2ccc(Br)c(C)c2)cc1N1C[C@@H](C)N[C@@H](C)C1
2.51	COc1ccc(NS(=O)(=O)c2ccc(-c3cccs3)cc2F)cc1N1C[C@@H](C)N[C@@H](C)C1
1	COc1ccc(NS(=O)(=O)c2ccc(-c3cccs3)cc2C)cc1N1C[C@@H](C)N[C@@H](C)C1
20	COc1ccc(NS(=O)(=O)c2ccc(-c3ccc(F)cc3)cc2)cc1N1C[C@@H](C)N[C@@H](C)C1
31.6	COc1ccc(NS(=O)(=O)c2ccc(-c3cccc(F)c3F)cc2)cc1N1C[C@@H](C)N[C@@H](C)C1
5.01	C[C@@H]1CN(c2ccc(F)c(NS(=O)(=O)c3ccc(-c4cccs4)cc3)c2)C[C@H](C)N1
2	COc1ccc(N2C[C@@H](C)N[C@@H](C)C2)cc1NS(=O)(=O)c1ccc(-c2cc(C)cs2)s1
0.794	COc1ccc(NS(=O)(=O)c2ccc(-c3cc(C)cs3)s2)cc1N1C[C@@H](C)N[C@@H](C)C1
79.4	COc1ccc(NS(=O)(=O)c2ccc(-c3ccc(C)cc3)cc2)cc1N1C[C@@H](C)N[C@@H](C)C1
25.1	COc1ccc(N2C[C@@H](C)N[C@@H](C)C2)cc1NS(=O)(=O)c1ccc(-c2ccccc2C)s1
50.1	COc1ccc(NS(=O)(=O)c2ccc(-c3ccccc3C)s2)cc1N1C[C@@H](C)N[C@@H](C)C1
25.1	COc1ccc(NS(=O)(=O)c2ccc(-c3c(C)cccc3C)s2)cc1N1C[C@@H](C)N[C@@H](C)C1
3.98	COc1ccc(NS(=O)(=O)c2ccc(-c3cccc(C)c3)s2)cc1N1C[C@@H](C)N[C@@H](C)C1
100	COc1ccc(NS(=O)(=O)c2ccc(-c3ccc(F)cc3)s2)cc1N1C[C@@H](C)N[C@@H](C)C1
2.51	COc1ccc(N2C[C@@H](C)N[C@@H](C)C2)cc1NS(=O)(=O)c1ccc(-c2ccccc2Cl)s1
31.6	COc1ccc(N2C[C@@H](C)N[C@@H](C)C2)cc1NS(=O)(=O)c1ccc(-c2cccc(F)c2)s1
31.6	COc1ccc(N2C[C@@H](C)N[C@@H](C)C2)cc1NS(=O)(=O)c1ccc(-c2ccc(C)cc2)s1
100	Cc1ccc(N2C[C@@H](C)N[C@@H](C)C2)cc1NS(=O)(=O)c1ccc(Br)cc1
12.6	COc1ccc(NS(=O)(=O)c2ccc(-c3ccoc3)s2)cc1N1C[C@@H](C)N[C@@H](C)C1
5.01	Cc1ccc(N2C[C@@H](C)N[C@@H](C)C2)cc1NS(=O)(=O)c1ccc2ccccc2c1
